Assay results reported in patent US20220340951A1, “MEASURING THE ANTIMICROBIAL SUSCEPTIBILITY OF MICROBES” (priority 2019, published 2022).
In brackets after ≈: the same amount, converted by molar mass. Entries after “also recorded” stand apart in the source; their conditions may differ.

How the values were obtained:
[1] = Antibiotic screening: CV, EIS and DPV of antibiotic solutions (without gels) on gold screen printed electrode; type: physicochemical; conditions: antibiotic at typical working concentration, no gel; for Phase / Z at 100 kHz: EIS; for CDL / RSOLN: fitted EIS
Procedure: CV measurements were performed by sweeping the potential between −0.3 V to 0.5 V with reference to the Ag electrode three times. Analysis was performed using the third measurement. Electrodes were also characterised using differential pulse voltammetry (DPV) across the same potential range as CV. Peak current (Ipk) was extracted from the DPV measurement. Electrodes were also characterised using EIS. […] The Nyquist and Bode impedance plots that were generated were fitted to the Randles' equivalent circuit to extract various impedance parameters. […] A wide spectrum of antibiotics were tested including amoxicillin, oxacillin, methicillin, ampicillin, chloramphenicol, gentamicin, streptomycin and carbenicillin. […] Amoxicillin was then tested in an agarose gel with and without FF-C present (FIG. 2 (b)). […] The majority of the parameters are taken from fitted EIS data alongside Ipk from DPV measurements.

[2] = tested on: E. coli (ATCC 25922); experiment: Minimum inhibitory concentration of streptomycin as used in E. coli gels; type: cell-based; conditions: Escherichia coli, ATCC25922
[3] = tested on: Staphylococcus aureus (ATCC 29213); experiment: Electrochemical (EIS) bacterial growth profile on antibiotic-infused gel-modified electrode; type: cell-based; conditions: for Z at 100 kHz growth profile compared with baseline (no bacteria): antibiotic 8 μg/ml in gel, up to 150 minutes
[4] = tested on: methicillin-resistant Staphylococcus aureus (MRSA: ATCC 43300); experiment: Electrochemical (EIS/DPV) bacterial growth profile on antibiotic-infused gel-modified electrode; type: cell-based
[5] = tested on: sensitive S. aureus; experiment: Gel streak plate growth (1 wt % agarose + LB); type: cell-based, Staphylococcus aureus; conditions: amoxicillin 8 μg/ml; with or without FF-C
[6] = tested on: methicillin-resistant S. aureus (MRSA); experiment: Gel streak plate growth (1 wt % agarose + LB Broth + FF-C); type: cell-based, Staphylococcus aureus; conditions: amoxicillin 8 μg/ml
[7] = tested on: MRSA; experiment: Minimum inhibitory concentration by two-fold broth microdilution; type: cell-based; conditions: Staphylococcus aureus; strain not stated explicitly; printed in the MRSA context

| Molecule | DPV Ipk [1] [μA] | Phase [1] [°] | Z at 100 kHz [1] [kΩ] | CDL [1] [μF] | RSOLN [1] [kΩ] | MIC [2] [µg/mL] | baseline-subtracted Z at 100 kHz over time ([3]; amoxicillin-laden gel 8 μg/ml, between 30 and 100 minutes) | Z at 100 kHz growth profile compared with baseline (no bacteria) [3] | change in Z (baseline subtracted) ([4]; amoxicillin 8 μg/ml gel, over 30-100 minutes) | Z at 100 kHz growth profile compared with baseline (no bacteria) ([4]; amoxicillin 8 μg/ml in gel) | DPV peak current (Ipk) growth profile, baseline subtracted ([4]; amoxicillin 50 μg/ml gel) | change in Z (baseline subtracted) ([4]; amoxicillin 50 μg/ml gel, 30-100 minutes) | Z at 100 kHz growth profile compared with baseline (no bacteria) ([4]; amoxicillin 50 μg/ml in gel) | growth on streak plate [5] | growth on streak plate [6] | MIC [7] [µg/mL] | baseline-subtracted Z at 100 kHz over time ([3]; oxacillin gel 8 μg/ml, up to ~70 minutes) | Z growth curves for gels with and without oxacillin ([4]; oxacillin 8 μg/ml gel) |
| --- | --- | --- | --- | --- | --- | --- | --- | --- | --- | --- | --- | --- | --- | --- | --- | --- | --- | --- |
| [H]/N=C(/N)N[C@H]1[C@H](O)[C@@H](O)[C@H](O[C@@H]2O[C@@H](C)[C@](O)(C=O)[C@H]2O[C@@H]2O[C@@H](CO)[C@H](O)[C@@H](O)[C@@H]2NC)[C@@H](N/C(N)=N\[H])[C@@H]1O [streptomycin] | 0 | 58.51 | 16.45 | 0.58 | 55.85 | ~4 (≈ 6.88 µM) |  |  |  |  |  |  |  |  |  |  |  |  |
| gentamicin | 0.01 | 31.68 | 6.05 | 0.77 | 7.97 |  |  |  |  |  |  |  |  |  |  |  |  |  |
| CC1(C)S[C@@H]2[C@H](NC(=O)[C@H](N)c3ccc(O)cc3)C(=O)N2[C@H]1C(=O)O [amoxicillin] | 0.02 | 82.74 | 21.34 | 0.53 | 143.30 |  | unchanging | almost identical response to the baseline response | ~11 Ω | does not imitate the baseline | almost completely flat | virtually no change in Z | very similar profile to the baseline measurement | completely inhibited; also recorded: unable to grow | displays growth either in the presence or absence of amoxicillin | ~8 (≈ 21.9 µM) |  |  |
| O=C(N[C@H](CO)[C@H](O)c1ccc([N+](=O)[O-])cc1)C(Cl)Cl [chloramphenicol] | 0.31 | 76.20 | 19.06 | 0.41 | 94.39 |  |  |  |  |  |  |  |  |  |  |  |  |  |
| CC1(C)S[C@@H]2[C@H](NC(=O)C(C(=O)O)c3ccccc3)C(=O)N2[C@H]1C(=O)O (stereo partly drawn) [carbenicillin] | 0 | 46.56 | 7.54 | 0.44 | 11.83 |  |  |  |  |  |  |  |  |  |  |  |  |  |
| COc1cccc(OC)c1C(=O)N[C@@H]1C(=O)N2[C@@H]1SC(C)(C)[C@@H]2C(=O)O [methicillin] | 0.06 | 61.43 | 15.92 | 0.53 | 67.30 |  |  |  |  |  |  |  |  |  |  |  |  |  |
| Cc1onc(-c2ccccc2)c1C(=O)N[C@@H]1C(=O)N2[C@@H]1SC(C)(C)[C@@H]2C(=O)O [oxacillin] | 0 | 111.17 | 22.79 | 0.28 | 49.81 |  |  | very similar Z profile to the baseline measurement |  |  |  |  |  |  |  |  | remains fairly flat | look very similar for gels with and without oxacillin |
| CC1(C)S[C@@H]2[C@H](NC(=O)[C@H](N)c3ccccc3)C(=O)N2[C@H]1C(=O)O [ampicillin] | 0 | 67.63 | 10.88 | 0.38 | 40.93 |  |  |  |  |  |  |  |  |  |  |  |  |  |
